Measured values as given in the OligoGym collection.
Oligonucleotides are written 5' to 3', each unit as a sugar letter and its base; * is a phosphorothioate linkage, no mark a phosphodiester; rarer units and linkages stand in square brackets, end groups in braces. Plain capitals give the bases only. Oligonucleotides are given in HELM: sugar(base)linkage, 5' to 3'; d 2'-deoxyribose, r ribose, m 2'-O-methylribose, p phosphate. ss, as = sense and antisense strand; d = 2'-deoxy (DNA); r = 2'-OH (RNA)

These substances were tested against SOST (assay: reporter assay of Huesken 2005). Conditions: siRNA.
Note: test concentration or dose not given here.

In order of falling normalised inhibition (eCFP-eYFP dual reporter):
1. RNA1{r(A)p.r(A)p.r(C)p.r(A)p.r(A)p.r(G)p.r(A)p.r(C)p.r(C)p.r(A)p.r(U)p.r(G)p.r(A)p.r(A)p.r(C)p.r(C)p.r(G)p.r(G)p.r(G)p.d(T)p.d(T)}|RNA2{r(C)p.r(C)p.r(C)p.r(G)p.r(G)p.r(U)p.r(U)p.r(C)p.r(A)p.r(U)p.r(G)p.r(G)p.r(U)p.r(C)p.r(U)p.r(U)p.r(G)p.r(U)p.r(U)p.d(G)p.d(T)}$$$RNA1{StrandType:ss}|RNA2{StrandType:as}$  69.7%
2. RNA1{r(A)p.r(A)p.r(A)p.r(U)p.r(C)p.r(A)p.r(U)p.r(C)p.r(C)p.r(C)p.r(C)p.r(G)p.r(A)p.r(G)p.r(C)p.r(U)p.r(C)p.r(G)p.r(G)p.d(T)p.d(T)}|RNA2{r(C)p.r(C)p.r(G)p.r(A)p.r(G)p.r(C)p.r(U)p.r(C)p.r(G)p.r(G)p.r(G)p.r(G)p.r(A)p.r(U)p.r(G)p.r(A)p.r(U)p.r(U)p.r(U)p.d(C)p.d(C)}$$$RNA1{StrandType:ss}|RNA2{StrandType:as}$  49.8%

The substances below were run against UBE2M (assay: reporter assay of Huesken 2005). Conditions: siRNA.

In order of falling normalised inhibition (eCFP-eYFP dual reporter):
1. sense rCrUrArCrArArGrArGrUrGrGrGrArArGrUrUrUdTdT / antisense rArArArCrUrUrCrCrCrArCrUrCrUrUrGrUrArGdAdA  87.3%
2. sense rGrArUrGrArGrGrGrCrUrUrCrUrArCrArArGrAdTdT / antisense rUrCrUrUrGrUrArGrArArGrCrCrCrUrCrArUrCdAdG  82.7%
3. sense rGrGrUrGrArArGrUrGrUrGrArGrArCrArArUrGdTdT / antisense rCrArUrUrGrUrCrUrCrArCrArCrUrUrCrArCrCdTdT  81.7%
4. sense rGrUrCrCrUrGrArUrGrArGrGrGrCrUrUrCrUrAdTdT / antisense rUrArGrArArGrCrCrCrUrCrArUrCrArGrGrArCdAdG  80.3%
5. sense rGrGrCrCrUrGrCrArGrUrArUrCrUrCrUrUrCrUdTdT / antisense rArGrArArGrArGrArUrArCrUrGrCrArGrGrCrCdAdT  80.2%
6. sense rGrGrUrCrUrArUrCrArCrCrCrCrArArCrArUrUdTdT / antisense rArArUrGrUrUrGrGrGrGrUrGrArUrArGrArCrCdAdT  79.7%
7. sense rGrGrGrCrCrArGrGrGrUrUrArCrCrCrGrCrArUdTdT / antisense rArUrGrCrGrGrGrUrArArCrCrCrUrGrGrCrCrCdAdC  79.3%
8. sense rCrUrUrCrArArGrCrUrGrGrUrCrArUrCrUrGrUdTdT / antisense rArCrArGrArUrGrArCrCrArGrCrUrUrGrArArGdTdT  77%
9. sense rCrUrGrGrUrCrArUrCrUrGrUrCrCrUrGrArUrGdTdT / antisense rCrArUrCrArGrGrArCrArGrArUrGrArCrCrArGdCdT  76.7%
10. sense rGrUrCrCrUrUrArCrGrArUrArArArCrUrCrCrAdTdT / antisense rUrGrGrArGrUrUrUrArUrCrGrUrArArGrGrArCdTdG  76.7%
11. sense rGrGrCrGrGrCrUrGrUrUrUrGrArGrCrArGrArAdTdT / antisense rUrUrCrUrGrCrUrCrArArArCrArGrCrCrGrCrCdGdG  76.6%
12. sense rCrUrUrCrUrArCrArArGrArGrUrGrGrGrArArGdTdT / antisense rCrUrUrCrCrCrArCrUrCrUrUrGrUrArGrArArGdCdC  75.9%
13. sense rGrGrCrCrArGrGrGrUrUrArCrCrCrGrCrArUrGdTdT / antisense rCrArUrGrCrGrGrGrUrArArCrCrCrUrGrGrCrCdCdA  73.8%
14. sense rGrGrCrGrGrCrGrCrArGrCrUrGrCrGrGrArUrCdTdT / antisense rGrArUrCrCrGrCrArGrCrUrGrCrGrCrCrGrCrCdGdA  71.7%
15. sense rGrUrGrArUrArUrCrArGrCrUrUrCrUrCrArGrAdTdT / antisense rUrCrUrGrArGrArArGrCrUrGrArUrArUrCrArCdAdC  70.3%
16. sense rGrCrArGrArGrGrUrCrCrUrGrCrArGrArArCrAdTdT / antisense rUrGrUrUrCrUrGrCrArGrGrArCrCrUrCrUrGrCdGdG  69.9%
17. sense rUrArArGrGrUrGrGrGrCrCrArGrGrGrUrUrArCdTdT / antisense rGrUrArArCrCrCrUrGrGrCrCrCrArCrCrUrUrAdAdA  69.9%
18. sense rUrCrUrCrUrUrCrUrUrGrGrArGrCrCrCrArArCdTdT / antisense rGrUrUrGrGrGrCrUrCrCrArArGrArArGrArGrAdTdA  69.7%
19. sense rUrUrCrUrArCrArArGrArGrUrGrGrGrArArGrUdTdT / antisense rArCrUrUrCrCrCrArCrUrCrUrUrGrUrArGrArAdGdC  68.9%
20. sense rCrUrGrArArCrArArGrGrArGrGrCrCrGrCrArGdTdT / antisense rCrUrGrCrGrGrCrCrUrCrCrUrUrGrUrUrCrArGdTdG  68.6%
21. sense rGrCrCrArGrUrCrCrUrUrArCrGrArUrArArArCdTdT / antisense rGrUrUrUrArUrCrGrUrArArGrGrArCrUrGrGrCdTdT  68.5%
22. sense rUrGrCrArGrArArCrArArCrCrGrGrCrGrGrCrUdTdT / antisense rArGrCrCrGrCrCrGrGrUrUrGrUrUrCrUrGrCrAdGdG  67.6%
23. sense rUrArArUrUrUrArUrGrGrCrCrUrGrCrArGrUrAdTdT / antisense rUrArCrUrGrCrArGrGrCrCrArUrArArArUrUrAdTdG  67%
24. sense rGrGrCrCrGrCrArGrArGrGrUrCrCrUrGrCrArGdTdT / antisense rCrUrGrCrArGrGrArCrCrUrCrUrGrCrGrGrCrCdTdC  66.4%
25. sense rUrGrArArCrArArGrGrArGrGrCrCrGrCrArGrAdTdT / antisense rUrCrUrGrCrGrGrCrCrUrCrCrUrUrGrUrUrCrAdGdT  65.9%
26. sense rCrUrUrCrUrCrArGrArUrCrCrArGrArCrGrArCdTdT / antisense rGrUrCrGrUrCrUrGrGrArUrCrUrGrArGrArArGdCdT  65.6%
27. sense rUrCrArCrCrCrCrArArCrArUrUrGrArCrCrUrCdTdT / antisense rGrArGrGrUrCrArArUrGrUrUrGrGrGrGrUrGrAdTdA  65.4%
28. sense rGrGrGrCrGrGrCrArCrCrArArGrGrGrCrArGrCdTdT / antisense rGrCrUrGrCrCrCrUrUrGrGrUrGrCrCrGrCrCrCdGdC  64.9%
29. sense rCrUrUrGrGrArGrCrCrCrArArCrCrCrCrGrArGdTdT / antisense rCrUrCrGrGrGrGrUrUrGrGrGrCrUrCrCrArArGdAdA  64.5%
30. sense rCrUrGrCrArGrArArCrArArCrCrGrGrCrGrGrCdTdT / antisense rGrCrCrGrCrCrGrGrUrUrGrUrUrCrUrGrCrArGdGdA  64.1%
31. sense rGrGrArCrCrCrArCrUrGrArArCrArArGrGrArGdTdT / antisense rCrUrCrCrUrUrGrUrUrCrArGrUrGrGrGrUrCrCdTdC  63.1%
32. sense rGrArCrArArUrGrGrUrCrUrArUrCrArCrCrCrCdTdT / antisense rGrGrGrGrUrGrArUrArGrArCrCrArUrUrGrUrCdTdC  61.8%
33. sense rCrUrUrCrUrUrGrGrArGrCrCrCrArArCrCrCrCdTdT / antisense rGrGrGrGrUrUrGrGrGrCrUrCrCrArArGrArArGdAdG  61.3%
34. sense rGrCrArGrCrArGrCrArArGrArArGrGrCrGrUrCdTdT / antisense rGrArCrGrCrCrUrUrCrUrUrGrCrUrGrCrUrGrCdCdC  61%
35. sense rGrArUrArUrCrArGrCrUrUrCrUrCrArGrArUrCdTdT / antisense rGrArUrCrUrGrArGrArArGrCrUrGrArUrArUrCdAdC  60.5%
36. sense rGrArGrGrArGrUrCrGrGrCrGrGrGrCrGrGrCrAdTdT / antisense rUrGrCrCrGrCrCrCrGrCrCrGrArCrUrCrCrUrCdCdT  59.9%
37. sense rGrGrGrCrArGrCrArGrCrArArGrArArGrGrCrGdTdT / antisense rCrGrCrCrUrUrCrUrUrGrCrUrGrCrUrGrCrCrCdTdT  58.9%
38. sense rGrUrCrArUrCrUrGrUrCrCrUrGrArUrGrArGrGdTdT / antisense rCrCrUrCrArUrCrArGrGrArCrArGrArUrGrArCdCdA  58.9%
39. sense rGrGrGrUrGrGrCrUrArCrArUrCrGrGrCrUrCrCdTdT / antisense rGrGrArGrCrCrGrArUrGrUrArGrCrCrArCrCrCdCdG  58.1%
40. sense rUrCrArUrCrUrGrUrCrCrUrGrArUrGrArGrGrGdTdT / antisense rCrCrCrUrCrArUrCrArGrGrArCrArGrArUrGrAdCdC  57.5%
41. sense rGrUrGrGrGrCrCrArGrGrGrUrUrArCrCrCrGrCdTdT / antisense rGrCrGrGrGrUrArArCrCrCrUrGrGrCrCrCrArCdCdT  56.4%
42. sense rUrCrUrUrCrUrUrGrGrArGrCrCrCrArArCrCrCdTdT / antisense rGrGrGrUrUrGrGrGrCrUrCrCrArArGrArArGrAdGdA  56.1%
43. sense rCrGrGrGrGrUrGrGrCrUrArCrArUrCrGrGrCrUdTdT / antisense rArGrCrCrGrArUrGrUrArGrCrCrArCrCrCrCrGdCdA  54.3%
44. sense rGrUrUrCrArGrUrUrUrUrArArGrGrUrGrGrGrCdTdT / antisense rGrCrCrCrArCrCrUrUrArArArArCrUrGrArArCdAdC  53.9%
45. sense rGrArGrUrCrGrGrCrGrGrGrCrGrGrCrArCrCrAdTdT / antisense rUrGrGrUrGrCrCrGrCrCrCrGrCrCrGrArCrUrCdCdT  53%
46. sense rUrUrUrGrUrGrUrUrCrArGrUrUrUrUrArArGrGdTdT / antisense rCrCrUrUrArArArArCrUrGrArArCrArCrArArAdCdT  51.1%
